Entries after “also recorded” stand apart in the source; their conditions may differ.
Columns and labels:
tau = test: Hippocampal phospho-tau and total tau in 3×Tg AD mice; format: in vivo, mouse; settings: 9-month 3×Tg AD mice, 5 mM, 1 μL
Description: Mice weighting 20–30 g were anesthetized with 1% pentobarbital sodium (35 mg/kg), and fixed in a stereotaxic instrument (RWD). The scalp was sterilized with iodophors and 75% ethanol, and incised along the skull midline. Holes were drilled. Adeno-associated virus or DEPTAC was injected into the dorsal DG (posterior 1.9 mm, lateral ±1.1 mm from the bregma, ventral −2.0 from the skull) or lateral ventricle (posterior 0.22 mm, lateral ±1.0 mm from the bregma, ventral −2.5 from the skull), respectively, using an automatic microinjection system (World Precision Instruments, USA) at a rate of 0.05 μL/min. The needle syringe was left in place for 5 min before withdrawal. The skin was sutured and sterilized with iodophors. Mice were placed on thermos tank for analepsia.
(§1) For 2-month male C57BL/6 mice, 10 mM FITC-labeled or unlabeled-DEPTAC were directly injected through the tail vein or lateral ventricle for the evaluation of BBB-penetrability. For 9-month 3×Tg AD mice or Tau368 (20–30 g body weight), unlabeled-DEPTAC (5 mM, 1 μL for each time) was delivered for once into the lateral ventricle through direct stereotaxic injection, or repeatedly administrated through guiding cannulas (RWD, Shenzhen, China) implanted into the lateral ventricle once every 3 days for a consecutive month to test its dephosphorylation efficiency. Mice were restricted in a custom designed device and stayed awake during drug administration, and sacrificed at 24 h post the single or last DEPTAC administration.
Cultured cells or hippocampus tissues were collected on ice, and homogenized with RIPA lysis buffer containing 50 mM Tris-HCl, 100 mM NaCl, 1% Triton X-100, 5 mM EDTA, and 1:100 PMSF, and then centrifuged at 12,000 × g for 20 min. The supernatant was collected for the analysis of soluble proteins. In some experiments, the pellets were further incubated with 8% SDS buffer at 37 °C and then ultrasound for 60 times to reach a complete resuspension for the analysis of insoluble tau. Protein concentration was measured through BCA assays (Thermo Fisher). Equal amount of protein from each sample were separated in SDS-PAGE gels, and then transferred onto nitrocellulose or 0.22 μm polyvinylidene fluoride membranes (Merck Millipore). […] Blots were visualized using ECL luminol reagent (P0018FS, Beyotime), and quantified using ImageJ software.

neurons = test: Neuron penetrability in vivo; design: species or system mouse; settings: Supplementary Fig. S1a; 10 mM FITC-labeled or unlabeled-DEPTAC, C57BL/6 mice
Description: as §1

PP2A-Bα (PPP2R1A) = test: Fluorescence polarization competing assay, PP2A-Bα; format: binding, human; settings: 2.5 μM PP2A-Bα, 0.1 μM FITC-labeled DEPTAC; 37 °C, 30 min
Description: (§2) Purified human tau and PP2A-Bα (PPP2R1A) were obtained from AtaGenix (Wuhan, China), and concentrated using ultrafiltration tubes (Beyotime). In basic binding assays, tau or PP2A-Bα was aliquoted into serial dilutions with a buffer containing 20 mM Tris-HCl, 150 mM NaCl, and 0.5 mM 1,4-Dithiothreitol (pH 7.4), and incubated with 0.1 μM FITC-labeled DEPTAC, FITC-labeled control peptide and FITC (9:1 vol/vol), respectively, in a black 384-well plates (Corning) under 37 °C for 30 min. In competition binding assays, a mixture of 2.5 μM tau or PP2A-Bα and 0.1 μM FITC-labeled DEPTAC were incubated with increasing amounts of unlabeled-DEPTAC under 37 °C for 30 min. Fluorescence intensity was measured by a Biotek Synergy 2 microplate reader with the wavelengths of 480 nm (60) (Ex)/560 nm (40) (Em). The polarization measurements were corrected for background contributions to the measured intensity by subtracting the parallel and perpendicular intensity readings by the vehicle-only wells from the intensity readings for each data point. Fluorescence polarization (P) was calculated by the formula P = (I║ − I┴) / (I║ + I┴), where I║ was the intensity of emitted light polarized parallel to the excitation light, and I┴ was the intensity of emitted light polarized perpendicular to the excitation light.

[1] = test system: dentate granular cells of Tau368 mice; test: Sholl analysis of dendrite complexity; format: in vivo, mouse
Description: as §1
A total volume of 0.3 μL mixture of AAV-CaMKIIα-Cre (5.21E+07) and AAV-EF1α-DIO-mCherry (3.24E+12) (1:1 vol/vol) was stereotaxically injected into the dDG of Tau368 mice 1 month following the beginning of dox or normal drinking water administration. Dox was stopped 1-month post AAVs injection, and DEPTAC were delivered through lateral ventricle for a consecutive month. Behavioral tests were performed after the DEPTAC administration, and mice were killed after behavioral tests. Hippocampal sections of 60 μm were obtained, and fluorescent images were taken by a two-photon laser-scanning confocal microscope (LSM710, Zeiss). The dendrite complexity of granular cells in the dorsal dentate gyrus was evaluated by Sholl analysis using Simple Neurite Tracer plugin and ImageJ (Fiji) software. Dendrite spine density and the averaged area of mossy fiber punctas were evaluated using ImageJ by an experimenter blinded from mice groupings. It should be noted that the fluorescence-labeled mossy fibers assembled densely in the CA3 subset, the main target area of mossy fiber axon terminals, making it difficult to accurately measure the puncta areas (data not shown). Therefore, we chose the hilus of DG subset for the measurement, which we believe should be also valid to indicate the axon plasticity of DG granular cells.

human tau = test: Fluorescence polarization competing assay, tau; format: binding; settings: 2.5 μM tau, 0.1 μM FITC-labeled DEPTAC; 37 °C, 30 min
Description: as §2

[2] = intracerebroventricular, once every 3 days for a consecutive month, *p < 0.05, n = 4

(1) YQQYQDATADEQG, originates from the porcine β-tubulin 422–434 for recognizing and binding tau proteins.[5],[6] (2) GSGS, a linker for increasing the flexibility of the peptide.[15] (3) KKVAVVRTPPKSP, for recruiting PP2A-Bα,[16] and (4) RRRRRRRR [DEPTAC, DEPhosphorylation TArgeting Chimera; 38 amino acid residues, C185H314N72O56]
hippocampal phospho-tau, repeated delivery (tau; [2]): significantly reduced
hippocampal total tau, repeated delivery (tau; [2]): significantly reduced
hippocampal phospho-tau, delivered for once (tau; once, n = 4): tended to decrease; also recorded: relatively limited
hippocampal total tau, delivered for once (tau; once, n = 4): tended to decrease; also recorded: relatively limited
neuron penetrability in vivo (neurons): high neuron penetrability
reversal of FITC-DEPTAC/PP2A-Bα polarization by increased amount of unlabeled-DEPTAC (PP2A-Bα (PPP2R1A)): both were reversed
dendrite complexity, NW-treated ([1]; NW-treated Tau368 mice, n = 3~5 mice, 12~22 neurons): did not statistically change; also recorded: no statistically significant change
neurite differentiation in control mice ([1]; control mice without human tau accumulation): did not statistically change
dendrite complexity, dox-treated ([1]; dox-treated Tau368 mice, n = 3~5 mice, 12~22 neurons): did not statistically change; also recorded: no statistically significant change
reversal of FITC-DEPTAC/tau polarization by increased amount of unlabeled-DEPTAC (human tau): both were reversed
